Source: patent US8642566B2, “Therapeutic approaches for treating neuroinflammatory conditions” (Pharnext, priority 2009, dated 2014)

Experiments:
[1] = tested on: MOG-immunized mice developing chronic progressive EAE; test: Chronic phase EAE study, 70 days post EAE induction (Example 1); format: in vivo, C57BL/6 mice; conditions: Manova p<0.005; initial mean weights of all groups equal
Method: Prepare the emulsion containing MOG35-55 stock, PBS and CFA. The volume of MOG35-55 stock=[(The volume of the emulsion)×(1.5 g/L)]/[(3×10-3 mol/L)×(2581.6 g/mol)]; the volume of PBS=[(The volume of the emulsion)/2]−(The volume of MOG35-55 stock); The volume of CFA=(The volume of the emulsion)/2. The emulsion is prepared by diluting the MOG35-55 stock with PBS and then mix equal volumes of this diluent and CFA. The final concentration of MOG35-55 is 300 μg per 200 μL emulsion for each mouse. Air bubbles should be avoided and the syringe must be kept at 4° C. until injection. Before use the stability of the emulsion is tested by adding one drop into a beaker of water: if the drop remains as a solid clump and slowly dissipates, then the emulsion is stable and may be injected.
Mice are anesthetized with 2% Pentobarbital sodium (i.p injection, 70˜90 μL/mouse) and kept warm under infrared lamp. Injection of 200 ng Pertussis toxin in 200 μL PBS/mouse is performed (i.v.; tail vein) using a 1-mL syringe with 0.4-mm needle. The previously described emulsion is subcutaneously administered with a 1-mL syringe with 0.4-mm needle.
Mice are kept warm under infrared lamp to perform injection of 200 ng Pertussis toxin in 200 μL PBS via i.v. (tail vein) route, as described for MOG35-55 injection.
A chronic phase study is run for 70 days post EAE induction. […]

[2] = tested on: MOG-immunized mice developing chronic progressive EAE; test: Acute onset EAE study, 28 days after EAE induction (Example 1); format: in vivo, C57BL/6 mice; conditions: day 28; treatment from 3 weeks before EAE induction; clopidogrel oral, mecamylamine subcutaneous minipump; combination vs placebo p value less than 0.05
[3] = tested on: mouse EAE model (MOG35-55 immunization); test: Mouse EAE model, acute oral treatment Day 14 to Day 28, global clinical score (Example 2); format: in vivo, C57L/6J female mice; conditions: Day 16 to Day 28 after immunization, 1/60 of usual therapeutic doses (clopidogrel hydrogen sulfate 270 μg/kg/day, mecamylamine hydrochloride 9 μg/kg/day), vs EAE mice without treatment
Method: In this experiment, both drugs are equally diluted to ultra-low doses corresponding to 1/60 of their usual therapeutic doses, and importantly, both are administered orally. Protocols for EAE induction and clinical score calculations in this experiment are slightly modified and are described in detail below:
C57L/6J female mice (8 weeks old) are purchased from Janvier (France); after two weeks of habituation, female mice (10 weeks old) develop chronic paralysis after immunization with MOG (Myelin Oligodendrocyte Glycoprotein) peptide. The experimental encephalomyelitis is induced with the Hooke Kit MOG35-55/CFA Emulsion PTX (Pertussis toxin) for EAE Induction (EK-0110, EK-0115; Hooke laboratories). The control kit is CK-0115 (Hooke laboratories).
The day 0, two subcutaneous injections of 0.1 ml each are performed; one on upper back of the mouse and one in lower back. Each injection contains 100 μg of MOG35-55 peptide ([sequence]), 200 μg of inactivated Mycobacterium tuberculosis H37Ra and is emulsified in Complete Freund's adjuvant (CFA) (Hooke laboratories). The emulsion provides antigen needed to expand and differentiate MOG-specific autoimmune T cells. […]
The global score for each animal is determined by the addition of all the above mentioned categories. […]

Row | SMILES | Weight gain, Post Hoc comparison with control group treated with placebo (vehicle) [1] | Histological examination: perivascular lymphocyte infiltrate inflammation (perivascular cuffing) in spinal section [2] | Global clinical score (tail, hind limb, fore limb and bladder scores) [3]
1 | COC(=O)[C@H](c1ccccc1Cl)N1CCc2sccc2C1 [clopidogrel] | different from the control group | different degrees of perivascular inflammation | no positive effects
2 | CNC1(C)C2CCC(C2)C1(C)C (stereo not drawn) [mecamylamine] | different from the control group | different degrees of perivascular inflammation | no positive effects
